This note sets out measurements from ChEMBL document CHEMBL1146546, “Warangalone, the isoflavonoid anti-inflammatory principle of Erythrina addisoniae stem bark” (J Nat Prod, 2003).

The subject of assay [1] is Mus musculus. Nature of the assay: Antiinflammatory activity against Naja mossambica PLA2-induced Swiss mouse paw edema assessed as inhibition of paw volume at 5 mg/kg, ip administered before 30 mins of PLA2 challenge measured after 60 mins relative to control. As to conditions: route intraperitoneal. It is filed as functional.
Assay [2] deals with Mus musculus. Kind of assay: Antiinflammatory activity against Naja mossambica PLA2-induced Swiss mouse paw edema assessed as inhibition of paw volume at 5 mg/kg, ip administered before 30 mins of PLA2 challenge measured after 30 mins relative to control. As to conditions: 0.5 h, route intraperitoneal. In kind it is functional.
For assay [3], the system named is Platelet. Nature of the assay: Inhibition of calcium ionophore A-23187/calcium-stimulated 12-hydroxyheptadecatrienoic acid production in human platelets. In kind it is functional.
Assay [4] relates to Mus musculus. Kind of assay: Antiinflammatory activity against TPA-induced ear edema in Swiss mouse chronic dermatitis model assessed as inhibition of increase in ear weight at 0.25 mg/ear relative to control. In kind it is functional.
Assay [5] is described as follows: Inhibition of PKC catalytic subunit.
For assay [6], the species on record is Mus musculus. Nature of the assay: Antiinflammatory activity against Swiss mouse chronic dermatitis model assessed as inhibition of TPA-induced tissue myeloperoxidase activity at 0.25 mg/ear applied twice daily for 4 days measured after 6 hrs relative to control. In kind it is functional.
Assay [7] is described as follows: Inhibition of calcium ionophore A-23187/calcium-stimulated LTB4 production in rat polymorphonuclear leukocytes. It is filed as functional.
For assay [8], the system named is Mus musculus. Kind of assay: Antiinflammatory activity against TPA-induced ear edema in Swiss mouse chronic dermatitis model assessed as inhibition of increase in ear weight. In kind it is functional.
For assay [9], the system named is Mus musculus. Nature of the assay: Antiinflammatory activity against carrageenan-induced Swiss mouse paw edema assessed as inhibition of paw volume at 10 mg/kg, po administered 1 hr before carrageenan challenge measured after 5 hrs relative to control. It is filed as functional. A general note: Carrageenan injected into the paw causes an acute inflammation.
In assay [10] the test system is Mus musculus. Kind of assay: Antiinflammatory activity against carrageenan-induced Swiss mouse paw edema assessed as inhibition of paw volume at 10 mg/kg, po administered 1 hr before carrageenan challenge measured after 3 hrs relative to control. It is filed as functional.
The species named for assay [11] is Mus musculus. Nature of the assay: Antiinflammatory activity against Swiss mouse chronic dermatitis model assessed as inhibition of TPA-induced tissue myeloperoxidase activity at 0.5 mg/ear applied twice daily for 4 days measured after 6 hrs relative to control. In kind it is functional.
Assay [12] relates to Mus musculus. Kind of assay: Antiinflammatory activity against TPA-induced ear edema Swiss mouse chronic dermatitis model assessed as inhibition of increase in ear weight at 0.5 mg/ear relative to control. In kind it is functional.
In assay [13] the test system is Mus musculus. Nature of the assay: Antiinflammatory activity against carrageenan-induced Swiss mouse paw edema assessed as inhibition of paw volume at 10 mg/kg, po administered 1 hr before carrageenan challenge measured after 1 hr relative to control. In kind it is functional.

Usually inhibition in vivo stands for the percentage by which the read-out fell short of the control. For `CN1CCC(=C2c3ccccc3C=Cc3ccccc32)CC1` [CYPROHEPTADINE], the figures for the inhibition in vivo at 5 mg/kg in assay [1] and in [2] were 63% and 66%, respectively.

For orientation: IC50 means the concentration that gives 50% inhibition. High values mean a need for much substance, low ones inhibition by little substance. On to `CC(C)=CCc1c2c(c(O)c3c(=O)c(-c4ccc(O)cc4)coc13)C=CC(C)(C)O2` [WARANGALONE], for which the “inhibition (INH)” value in [3] is listed as below 20%; in assay [4] it was 78%; in assay [6], 41%; in assay [7] it was below 20%. For the same molecule, in [5], the IC50 is 3.5 µM. The inhibition in vivo at 5 mg/kg turned out to be 68% in assay [1] and 21% in assay [2]. Further, in assay [8], the ID50 was determined as 0.54 µmol.

Take `COc1ccc2c(c1)c(CC(=O)O)c(C)n2C(=O)c1ccc(Cl)cc1` [INDOMETHACIN]: the inhibition in vivo at 10 mg/kg in [9] was 31%; in assay [10] it was 60%; in assay [13] it was 14%. The “inhibition (INH)” value was determined as 36% in assay [11] and 82% in [12]. In addition, in assay [8], the ID50 amounted to 0.29 µmol.
